Test results published in patent US20050118310A1, “Formulations of compounds derived from natural sources and their use with irradiation for food preservation” (priority 2001, published 2005).
Several values for one entry are separate records, joined by “and”; a condition that tells them apart may be missing. Equal values may be shown once. Marks after values point to notes of the source that are not given here.

Columns and labels:
S. typhi [1] = experiment: Irradiation sensitivity of S. typhi in chicken breast; format: cell-based, Salmonella typhi (ATCC 19430); settings: for D10(kGy) / Increase in Sensitivity: chicken breast; for D10(kGy): 4° C.; for D10(kGy) / irradiation dose necessary to completely eliminate S. typhi from the chicken breast / Increase in Sensitivity: trans-cinnamaldehyde 0.030%, tetrasodium pyrophosphate 0.003%, carvacrol 0.038%, thymol […]; for factor by which the effect was reduced in the chicken breast: concentration of 1/30 of the MIC value in ground beef, compared with ground beef at MIC; for Increase in Sensitivity: vs control
[2] = test system: Six pathogenic and spoilage bacteria, commonly found in meat and meat products; experiment: MIC in artificial culture media (1 log reduction); format: cell-based
Description: The concentration ot each active compound added to the meat samples was based on results obtained in a previous experiment. These concentrations represent the minimum inhibitory concentrations (MIC) of the active compounds required to be present in artificial culture media in order to reduce by 1 log the number of bacteria in culture. Six pathogenic and spoilage bacteria, commonly found in meat and meat products, were tested. […] The concentration used for carnosine (1.0%) was selected from the literature (Sebranek, 1999). The concentrations of BHA (0.01%), BHT (0.01%), EDTA (100 ppm), and tetrasodium pyrophosphate (0.1%) corresponded to the concentrations recommended by the Canadian Food Inspection Agency (CFIA).
This value was detennined by testing six pathogenic and spoilage bacteria, commonly found in meat and meat products.

E. coli [3] = experiment: MIC (D10 %) of active compounds in ground beef, E. coli; format: cell-based, Escherichia coli (ATCC 25922); settings: non-irradiated ground beef, 10^5 CFU/g, stored at 4° C. for 24 hours; % w/w or v/w
Description: (§1) Escherichia coli (ATCC 25922) and Salmonella typhi (ATCC 19430) were obtained from the American Type Culture Collection (Rockville, Md., USA) and maintained at −80° C. in Tryptic Soy Broth (TSB; Difco Laboratory, Detroit, Mich.) containing glycerol (10%; v/v). Before each experiment, stock cultures were subcultured through two consecutive 24 h growth cycles in TSB at 35° C. to obtain working cultures containing approximately 10^9 UCF/ml for E. coli and S. typhi.
(§2) Samples were homogenised for 2 min in sterile peptone water (0.1%) using a Lab-blender 400 stomacher (Laboratory Equipment, London, UK). From this mixture, serial dilutions were prepared and appropriate ones were pour-plated in tryptic soy agar (TSA) (Difco, Laboratories, Detroit, Mich., USA) and incubated at 35° C., 24 hours for the numeration of E. coli and S. typhi.
(§3) D10 deteriiination: The kinetics of bacteria destruction by irradiation with or without the active compounds and under different packaging conditions was evaluated by linear regression. Bacterial counts (log CFU/ml) were plotted against irradiation doses or compound concentrations and the D10 values were calculated using SigmaPlot program. Statistical analysis was done using SPSS program. The Duncan test was used with a probability of 0.05.
(§4) The MIC values for the active compounds were determined on the basis of their antibacterial effectiveness in meat. Concentrations retained were those to reduce by 1 log CFU the population of E. coli or S. typhi in ground beef. Ground beef samples weighing 200 g were contaminated with working cultures of E. coli or S. typhi to obtain a final concentration of 10^5 CFU/g. The ground beef samples containing micro-organisms was mixed during 3 minutes at medium speed in a 4L-conmmercial blender (Waring Products, New Hartford, Col., USA) and different concentrations of the active compounds were incorporated, followed by another 3 minutes period mixing. Sterile petri plates (60×15 mm) were filled with ground beef samples containing micro-organisms and different concentrations of active compounds in portion of 25 g each and stored at 4° C. for 24 hours.
(§5) In addition to the above compounds, minimal concentrations of different types of commercial Herbalox® and Duralox® required to reduce by 1 log the bacterial population of E. coli in ground beef were evaluated. […] However, an estimation of the minimal concentration was calculated using the slope of the curve.

E. coli [4] = experiment: Shelf life study, E. coli in ground beef irradiated at 0.30 kGy; format: cell-based, Escherichia coli; settings: stored at 4° C., trans-cinnamaldehyde […], thymol 1.15%, carvacrol […]
Description: Irradiation treatments of ground beef samples for D10 and shelf life determination were performed using UC-15B irradiator (MDS-Nordion International Inc., Kanata, ON, Canada) equipped with a ^60 Co source at a dose rate of 14.42 kGy/h). Irradiation doses used for D10 determination were ranged from 0.25 to 0.55 kGy for E. coli, from 0.50 to 2.0 kGy for S. typhi, and from 0.5 to 2.5 kGy for the mixture of indigenous microorganisms of ground beef. The shelf life study was performed on samples irradiated at 0.30, 0.85, and 1.75 kGy for E. coli, S. typhi, and the mixture of indigenous microorganisms of ground beef, respectively. For each active compound concentration tested, a group of non-irradiated samples sened as a control. For D10 determination, samples were analysed immediately after irradiation. For shelf life studies, samples were stored at 4° C. and analysed periodically.
Microbial analysis was performed by homogenising the samples for 2 mn in sterile peptone water (0.1%) using a Lab-blender 400 stomacher (Laboratory Equipment, London, UK). From this mixture, serial dilutions were prepared and appropriate ones were pour-plated in tryptic soy agar (TSA) (Difco, Laboratories, Detroit, Mich., USA) and incubated at 35° C., 24 hours for the numeration of E. coli and S. typhi. For the ground beef broth, the incubation was performed on Plate Count Agar (PCA; Difco) at 35° C. for 48 h for the numeration mesophilic bacteria, and at 7° C. for 10 days for the numeration of psychrotrophic bacteria. Enterobacteriaceae were numerated on Violet Red Bile Glucose Agar (VRBGA; Difco) 35° C. for 48 hours.
A shelf life study was undertaken to evaluate the radiation sensitivity during refrigerated storage conditions. Ground beef samples contaminated with E. coli, S. typhi, or a mixture of indigenous micro-organisms were irradiated in presence or absence of selected active compounds. […]

S. typhi [5] = experiment: MIC (D10 %) of active compounds in ground beef, S. typhi; format: cell-based, Salmonella typhi (ATCC 19430); settings: non-irradiated ground beef, 10^5 CFU/g, stored at 4° C. for 24 hours; % w/w or v/w
Description: as §1, §2, §3, §4, §5

S. typhi [6] = experiment: Irradiation sensitivity (D10) of S. typhi in ground beef; format: cell-based, Salmonella typhi (ATCC 19430)
E. coli [7] = experiment: Irradiation sensitivity of E. coli in chicken breast; format: cell-based, Escherichia coli (ATCC 25922); settings: trans-cinnamaldehyde 0.050%, thymol 0.038%, tetrasodium pyrophosphate 0.003%, carvacrol 0.029%; for D10(kGy) / Increase in Sensitivity: chicken breast; for D10(kGy): 4° C.; for Increase in Sensitivity: vs control
[8] = ground beef, air, 4° C., carvacrol 1.0% alone or with ascorbic acid 0.5% and/or tetrasodium pyrophosphate 0.1%

| Structure (SMILES) | D10(kGy) (S. typhi [1]) | factor by which the effect was reduced in the chicken breast (S. typhi [1]) | irradiation dose necessary to completely eliminate S. typhi from the chicken breast (S. typhi [1]) | Increase in Sensitivity (S. typhi [1]) | Mean values of MIC (concentration required in artificial culture media to reduce by 1 log the number of bacteria) [2] | D10 (%): minimal concentration of active compound required to reduce E. coli population by 1 log in ground beef (E. coli [3]) | days of storage after which complete inhibition was observed (E. coli [4]) | D10 (%): minimal concentration of active compound required to reduce S. typhi population by 1 log in ground beef (S. typhi [5]) | D10(kGy) (E. coli [7]) | irradiation dose necessary to completely eliminate E. coli from the chicken breast (E. coli [7]) | Increase in Sensitivity (E. coli [7]) | further results |
| --- | --- | --- | --- | --- | --- | --- | --- | --- | --- | --- | --- | --- |
| Cc1ccc(C(C)C)cc1O [Carvacrol, carvacrol] | 0.532 ± 0.071^b kGy | 4 | 2.3 kGy | 17.3% | 0.125% | 0.88 ± 0.12^a % | 50 days | 1.15 ± 0.02^a % | 0.145 ± 0.003^c kGy | 0.72 kGy | 0% | D10(kGy) (S. typhi [6]; [8]): 0.235 ± 0.0158^a kGy; irradiation dose for complete elimination of S. typhi (S. typhi [6]; [8]): 1.25 kGy; Increase in Sensitivity (S. typhi [6]; vs control (0.519 kGy), ground beef, air, 4° C., carvacrol 1.0% alone or with ascorbic acid 0.5% and/or tetrasodium pyrophosphate 0.1%): 54.7% |
| O=C/C=C/c1ccccc1 [Trans-cinnamaldehyde, trans-cinnamaldehyde] | 0.341 ± 0.018^a kGy | 1.5 | 1.4 kGy | 47.0% | 0.25% and 0.025% | 1.57 ± 0.10^b % | 15 days | 0.89 ± 0.03^a % | 0.098 ± 0.006^a kGy | 0.75 kGy | 32.4% | D10(kGy) (S. typhi [6]; ground beef packed under MAP (60% O2-30% CO2-10% N2), 4° C., trans-cinnamaldehyde […]): 0.110 ± 0.002^b* kGy; D10(kGy) (S. typhi [6]; ground beef packed under air, 4° C., trans-cinnamaldehyde […]): 0.356 ± 0.005^a* kGy; Increase in Sensitivity (S. typhi [6]; ground beef under MAP, trans-cinnamaldehyde […] vs control under the same atmosphere): 50.2%; Increase in Sensitivity (S. typhi [6]; ground beef under air, trans-cinnamaldehyde […] vs control under the same atmosphere): 32.3%; increase in irradiation sensitivity by modification of the packaging atmosphere (S. typhi [6]; ground beef, MAP vs air, both with trans-cinnamaldehyde […]): 69.1%; irradiation dose required to completely eliminate S. typhi from the ground beef (S. typhi [6]; under MAP, trans-cinnamaldehyde […]): 0.6 kGy; irradiation dose required to completely eliminate S. typhi from ground beef (S. typhi [6]; under air, trans-cinnamaldehyde 0.89%): 0.75 kGy; irradiation dose required to completely eliminate S. typhi from the ground beef (S. typhi [6]; under air, trans-cinnamaldehyde […]): around 2 kGy |
| Cc1ccc(C(C)C)c(O)c1 [Thymol, thymol] | 0.570 ± 0.065^b kGy | 5 | 2.8 kGy | 11.4% | 0.1% | 1.14 ± 0.05^a % | 15 days | 1.60 ± 0.00^ab % | 0.131 ± 0.007^b kGy | around 0.75 kGy | 9.7% |  |
